≈ marks a conversion by molar mass, not a printed value.
Experiments:
[1] = test system: Pseudomonas aeruginosa IFO 3445; experiment: Antibacterial test, agar plate dilution method; settings: Pseudomonas aeruginosa, IFO3445, 18 h
[2] = test system: Serratia marcescens IAM1184; experiment: Antibacterial test, agar plate dilution method; settings: Serratia marcescens, IAM1184, 18 h
Enterobacter cloacae 963 = experiment: Antibacterial test, agar plate dilution method; settings: Enterobacter cloacae, 963, 18 h
[3] = test system: Bacillus subtilis ATCC6633; experiment: Antibacterial test, agar plate dilution method; settings: Bacillus subtilis, ATCC6633, 18 h
[4] = test system: Klebsiella pneumoniae PCI-602; experiment: Antibacterial test, agar plate dilution method; settings: Klebsiella pneumoniae, PCI602, 18 h
[5] = test system: Staphylococcus aureus Terajima; experiment: Antibacterial test, agar plate dilution method; settings: Staphylococcus aureus, 18 h
[6] = test system: Salmonella typhimurium IID971; experiment: Antibacterial test, agar plate dilution method; settings: Salmonella enterica, 18 h
[7] = test system: Salmonella enteritidis G14; experiment: Antibacterial test, agar plate dilution method; settings: Salmonella enterica, ENTERITIDIS, 18 h
[8] = test system: Morganella morganii IFO3848; experiment: Antibacterial test, agar plate dilution method; settings: Morganella morganii, IFO3848, 18 h
[9] = test system: Staphylococcus aureus FDA 209P JC-1; experiment: Antibacterial test, agar plate dilution method; settings: Staphylococcus aureus, FDA209P, 18 h
[10] = test system: Escherichia coli NIHJ JC-2; experiment: Antibacterial test, agar plate dilution method; settings: Escherichia coli, NIHJJC2, 18 h
[11] = test system: Proteus mirabilis IFO3849; experiment: Antibacterial test, agar plate dilution method; settings: Proteus mirabilis, IFO3849, 18 h
Proteus vulgaris HX-19 = experiment: Antibacterial test, agar plate dilution method; settings: Proteus vulgaris, HX19, 18 h
Proteus vulgaris OX-19 = experiment: Antibacterial test, agar plate dilution method; settings: Proteus vulgaris, OX19, 18 h
[12] = test system: P. aeruginosa resistant strains; experiment: Sensitivity test against clinical isolates, P. aeruginosa resistant strains; format: cell-based; settings: 54 resistant strains
Experimental: It is noted here that the 54 strains have been chosen because there have been the strains in duplicate with the agents. ______________________________________ Ceftazidime (CAZ) (25 to 100 μg/ml) 21 strains Cefsulodine (CFS) (25 to >100 μg/ml) 23 strains Piperacilin (PIPC) (25 to >100 μg/ml) 15 strains Gentamycin (GM) (25 to >100 μg/ml) 21 strains Amikacin (AMK) (25 to >100 μg/ml) 26 strains Ofloxacin (OFLX) (25 to >100 μg/ml) 4 strains ______________________________________
A minimum inhibitory concentration (MIC) was determined in substantially the same manner as the test procedures II above using the 54 strains of P. aeruginosa having an anti-Pseudomonas resistance.

[13] = test system: Swine Kidney Dehydropeptidase-I (DHP-I); experiment: Hydrolysis activity against DHP-I enzyme substrate by late assay; format: in vitro ADME; settings: final substrate concentration 100 μM, 10 minutes, pH 7.1
Experimental: The swine kidney (8 kg) was homogenized and an enzyme protein was allowed to precipitate. After a connective lipid was removed with acetone, the resultant material was made soluble by treatment with butanol and purified in the order by the ammonium sulfate fraction method, thereby producing DPH-I enzyme from a 75% ammonium sulfate fraction.
The DHP-I enzyme was then adjusted to give an enzyme concentration of 25 mg/10 ml (phosphate buffer, pH 7.1), and divided into 1 ml portions. The portions were frozen and stored at -40° C. or less until use.
As control compounds were employed glycyl dehydrophenylalanine (Gl-dh-Ph) and imipenem, and they were adjusted in situ each to give the concentration of 177 μM with the same sodium phosphate buffer solution.
To 1.2 ml of a 50 mM sodium phosphate buffer solution (substrate) containing 177 μM of each of Gh-dh-Ph and imipenem as the control compounds was added 0.2 ml of the DHP-I enzyme solution (25 mg/10 ml) prepared above in the final substrate concentration of 100 μM. The solution was then incubated at […] for 10 minutes. An initial velocity of hydrolysis of the substrate was measured from a decrease in absorbency at a particular λmax of each of the substrates.
A blank test was conducted in substantially the same manner as above by adding 0.2 ml of the sodium phosphate buffer solution (pH 7.1) to 1.2 ml of the above substrate.

[14] = test system: Enterobacter cloacae GN 7467; experiment: Antibacterial activity against clinically isolated β-lactamase producing strains; format: cell-based; settings: Enterobacter cloacae, GN7467; cephalosporinase producing strain, 18 to 20 hours; read-out: MIC
Experimental: (§1) A solution of a cephalosporinase producing strain stored by Episome Research Institute, which was prepared by incubating the strain in a sensitivity test broth (STB; product of Nissui K.K.) for 18 hours, was diluted with a fresh STB solution to contain 10^5 cells per milliliter and the diluted solution was then inoculated as spots with a microplanter on a sensitivity disk agar-N (SDA; product of Nissui K.K.) containing a test compound. The disk agar was then incubated for 18 to 20 hours. A minimum inhibitory concentration was determined as a minimum concentration in which the test microorganism had no longer grown after a 18 to 20 hour incubation.

[15] = test system: Pseudomonas aeruginosa GN 918; experiment: as above; format: cell-based; settings: Pseudomonas aeruginosa, GN918; cephalosporinase producing strain, 18 to 20 hours; read-out: MIC
Experimental: as §1

[16] = test system: Enterobacter cloacae GN 7471; experiment: as above; format: cell-based; settings: Enterobacter cloacae, GN7471; cephalosporinase producing strain, 18 to 20 hours; read-out: MIC
Experimental: as §1

Proteus vulgaris GN 76 = experiment: as above; format: cell-based; settings: Proteus vulgaris, GN76
Experimental: as §1

[17] = test system: C. freundii resistant strains; experiment: Sensitivity test against clinical isolates, C. freundii resistant strains; format: cell-based; settings: CFIX/CTX resistant strains
Experimental: Cefixime (CFIX) (50 to >100 μg/ml)
Cefotaxime (CTX) (50 to >100 μg/ml)
The tests were carried out in the same manner as described above Test 1.

SMILES | MIC [1] [µg/mL] | MIC [2] [µg/mL] | MIC (Enterobacter cloacae 963) [µg/mL] | MIC [3] [µg/mL] | MIC [4] [µg/mL] | MIC [5] [µg/mL] | MIC [6] [µg/mL] | MIC [7] [µg/mL] | MIC [8] [µg/mL] | MIC [9] [µg/mL] | MIC [10] [µg/mL] | other results
Cc1nnc(SCC2=C(C(=O)O)N3C(=O)[C@@H](NC(=O)Cn4cnnn4)[C@H]3SC2)s1 [CEZ] | > 100 | > 100 | > 100 | 0.1 (≈ 0.22 µM) | 0.78 (≈ 1.72 µM) | 0.05 (≈ 0.11 µM) | 0.78 (≈ 1.72 µM) | 0.78 (≈ 1.72 µM) | 25 (≈ 55 µM) | 0.2 (≈ 0.44 µM) | 0.78 (≈ 1.72 µM) | –
C[C@@H](O)[C@H]1C(=O)N2C(C(=O)O)=C(SCCN=CN)C[C@H]12 [Imipenem] | 0.78 (≈ 2.61 µM) | 0.39 (≈ 1.3 µM) | 0.2 (≈ 0.668 µM) | 0.025 (≈ 0.0835 µM) | 0.39 (≈ 1.3 µM) | < 0.006 | 0.39 (≈ 1.3 µM) | 0.78 (≈ 2.61 µM) | 0.39 (≈ 1.3 µM) | 0.025 (≈ 0.0835 µM) | 0.1 (≈ 0.334 µM) | MIC [11]: 6.25 µg/mL (≈ 20.9 µM); MIC (Proteus vulgaris HX-19): 0.78 µg/mL (≈ 2.61 µM); MIC (Proteus vulgaris OX-19): 0.78 µg/mL (≈ 2.61 µM); test microorganisms whose growth is inhibited ([12]; concentration of 12.5 μg/ml): all the test microorganism; test microorganisms whose growth is inhibited ([12]; concentration of […]): approximately 98%; initial velocity of hydrolysis against DHP-I [13]: 0.56 µM/min; MIC [14]: 0.78 µg/mL (≈ 2.61 µM); MIC [15]: 0.78 µg/mL (≈ 2.61 µM); MIC [16]: 0.2 µg/mL (≈ 0.668 µM); MIC (Proteus vulgaris GN 76): 3.13 µg/mL (≈ 10.5 µM); test microorganisms whose growth is inhibited ([17]; concentration of 0.78 μg/ml): approximately 90%; test microorganisms whose growth is inhibited ([17]; concentration of 1.56 μg/ml): all the test microorganisms

From patent publication US4990613A, “(1R,5S,6S)-2-[(6,7-dih ydro-5H-pyrazolo[1,2-a][1,2,4]triazolium-6-yl)]thio-6-[R-1-hydroxyethyl]- 1-methyl-carbapenem-3-carboxylate and intermediate therefor” (Lederle (Japan), Ltd., priority 1987, dated 1991)
